Assay results published in patent publication US8772329B2, “Compounds from mycelium of Antrodia cinnamomea and use thereof” (Simpson Biotech Co., Ltd., priority 2008, dated 2014).

What was measured:
[1] = target: T1, HCV NS3/4A protease (Hepatitis C virus genotype 1b, UniProt O92972); test: HCV protease inhibition assay (SensoLyte 520 HCV Protease Assay Kit, FRET peptide substrate); format: biochemical; settings: for IC50: enzyme 0.5 μg/ml, 30 min at room temperature (28° C.), read-out: IC50 against HCV protease (converted)
T1 construct: HCV NS3/4A protease; purchased AnaSpec, San Jose, Calif., USA lot# Lot 046-047 (screening); lot# Lot 046-079 (mechanism study); catalogue number not given
Excerpt: Since the mycelium of Antrodia cinnamomea was recently reported to be clinically effective for hepatitis patients infected with HCV (Akiba T et al. 2007. Clinical study of Shoshi on Japanese hepatitis patients infected with C type hepatitis virus. The second Taiwan and Japan Symposium on Antrodia cinnamomea, Abst. pp. 82-98), a SensoLyte™ 520 HCV protease assay kit was applied to investigate the HCV-protease inhibitory activity of the isolated antrodins, the metabolites of antrodin C as well as one metabolite analogue. The assay method with a quenched-fluorogenic peptide substrate can be used for measure the activity of inhibitors as well as for continuous recording of the progress of the enzyme reaction.
The mode of inhibition was kinetically analyzed by plotting the enzyme activity at different concentrations of the substrate (10, 50, 100 and 200 times dilution of the substrate stocking solution) with (5 μg/ml, and 10 μg/ml) and without [0 μg/ml (DMSO)] compound 1.
HCV NS3/4A protease (lot# Lot 046-047 for the screening and lot# Lot 046-079 for the mechanism study) and SensoLyte™ 520 HCV Protease Assay Kit *Fluorimetric* (lot# AK 71147-1005) were purchased from AnaSpec, San Jose, Calif., USA. The substrate was a 5-FAM/QXL™520 FRET peptide based on the sequence of Ac-Asp-Glu-Asp(EDANS)-Glu-Glu-Abu-Ψ-[COO]Ala-Ser-Lys(DABCYL)-NH2. The assay was carried out on BD Falcon™ Microtest™384-well 120 μl black assay plates (lot#05391155). Fluorescence was measured by TECAN GENios plate reader at excitation/emission 485/530 nm Chemical compounds. Antrodins A-E (compounds 1-5) were isolated from the mycelium of Antrodia cinnamomea as reported (Nakamura et al., 2004. Five new maleic and succinic acid derivatives from the mycelium of Antrodia comphorata and their cytotoxic effects on LLC tumor cell line. J Nat Prod 67: 46-48). Embelin used as a positive control was isolated in our laboratory in previous work (Hussein et al., 2000, Inhibitory effects of Sudanese medicinal plant extracts on hepatitis C virus (HCV) Protease. Phytother Res 14: 510-516). Compounds 6, 7a and 7b were detected as the metabolites of antrodin C in vivo. Compounds 7a and 7b were un-separable due to the equilibrium of these two compounds through compound 1. It was thus used for the assay as a mixture of compounds 1, 7a and 7b and named 7. Compound 8 was an analogue of another metabolite whose glycine group was supposed to connect to the other carboxyl group in the structure.
Compound 6 was dissolved in H2O and other compounds were dissolved in DMSO for the assay. To each well were added 2 μl of respective compound solution and 8 μl of freshly diluted enzyme (0.5 μg/ml). The reaction was started by adding 10 μl of freshly diluted substrate (100 times dilution of a DMSO stocking solution). After being incubated at room temperature (28° C.) for 30 min, the fluorescence intensities were measured at Ex/Em=485 nm/535 nm. Inhibition percentages were calculated as 100×(Fvehicle−Fsample)/Fvehicle=% inhibition, where F is the fluorescence value of vehicle control or of compound minus the fluorescence of the substrate control.

[2] = cited from earlier work
[3] = system: Propionicbacterium acnes and lipopolysaccharide treated mice; settings: cited from earlier work

T1 sequence (O92972 1013-1207, looked up, natural form): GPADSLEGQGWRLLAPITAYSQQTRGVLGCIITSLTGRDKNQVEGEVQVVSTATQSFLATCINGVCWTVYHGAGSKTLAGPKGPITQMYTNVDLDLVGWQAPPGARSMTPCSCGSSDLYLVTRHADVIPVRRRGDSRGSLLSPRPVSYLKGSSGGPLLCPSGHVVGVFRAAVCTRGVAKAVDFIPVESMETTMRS

Row | SMILES | IC50 [1] [µM] | other results
1 | CC(C)=CCOc1ccc(C2=C(CC(C)C)C(=O)OC2=O)cc1 [Compound 1, 3-isobutyl-4-[4-(3-methyl-2-butenyloxy)phenyl]furan-2,5-dione] | 2.86 | mode of HCV PR inhibition (Lineweaver-Burk plot) ([1]; compound 1 at 0, 5 and 10 μg/ml, substrate 10, 50, 100 and 200 times dilution): competitive
2 | CC(C)=CCOc1ccc(C2=C(CC(C)C)C(=O)NC2=O)cc1 [Compound 2, 3-isobutyl-4-[4-(3-methyl-2-butenyloxy)phenyl]-1H-pyrrol-2,5-dione] | > 319 | 
3 | CC(C)=CCOc1ccc(C2=C(CC(C)C)C(=O)N(O)C2=O)cc1 [Compound 3, 3-isobutyl-4-[4-(3-methyl-2-butenyloxy)phenyl]-1H-pyrrol-1-ol-2,5-dione] | 8.8 | detection of parent compound in the body ([2]; after absorption): could not be detected in the body after absorption; absorption ([2]; gastrointestinal tract): quickly absorbed from the gastrointestinal tract; metabolization ([2]; liver): rapid and complete metabolization in liver; in vivo metabolism (metabolites formed) ([2]; metabolites: compounds 1, 2, 6, 7a, 7b and an analogue of compound 8): converted to six metabolites; protective activity [3]: showed protective activity
4 | CC(C)=CCOc1ccc(C2C(=O)N(O)C(=O)C2CC(C)C)cc1 (centres unmarked) [Compound 4, 3R*,4S*-1-hydroxy-3-isobutyl-4-[4-(3-methyl-2-butenyloxy)phenyl]pyrrolidine-2,5-dione] | 60.3 | 
5 | CC(C)=CCOc1ccc(C2C(=O)N(O)C(=O)C2CC(C)C)cc1 (centres unmarked) [Compound 5, 3R*,4R*-1-hydroxy-3-isobutyl-4-[4-(3-methyl-2-butenyloxy)phenyl]pyrrolidine-2,5-dione] | 60.6 | 
6 | CC(C)=CCOc1ccc(/C(C(=O)O)=C(\CC(C)C)C(=O)O)cc1 [Compound 6, (2Z)-2-isobutyl-3-{4-[(3-methylbut-2-en-1-yl)oxy]phenyl}but-2-enedioic acid] | 19.9 | 
7 | CC(C)=CCOc1ccc(/C(C(=O)NCC(=O)O)=C(\CC(C)C)C(=O)O)cc1 [Compound 8] | 148 | 
8 | CCCCCCCCCCCC1=C(O)C(=O)C=C(O)C1=O [Embelin, reference compound] | 13.9 | 
